According to patent US9085555B2, “Complement pathway modulators and uses thereof” (priority 2011, dated 2015):

Target: Factor D (Homo sapiens (Human), UniProt P00746)
Test: biochemical
Format: biochemical
Details: read-out: IC50

Factor D, sequence (P00746 26-253): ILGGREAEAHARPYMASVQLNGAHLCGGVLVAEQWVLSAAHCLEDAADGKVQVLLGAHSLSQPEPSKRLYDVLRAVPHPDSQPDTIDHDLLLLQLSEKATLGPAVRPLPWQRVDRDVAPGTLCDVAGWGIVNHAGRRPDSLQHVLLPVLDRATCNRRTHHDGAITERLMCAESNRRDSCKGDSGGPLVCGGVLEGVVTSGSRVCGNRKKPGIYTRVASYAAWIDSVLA

Compound `CC[C@H](C)[C@H](NC(=O)[C@@H]1C[C@@H](F)CN1C(=O)Nc1cn(C(N)=O)c2ccccc12)C(=O)O` [Example 25, (2S,3S)-2-{[(2S,4R)-1-(1-Carbamoyl-1H-indol-3-ylcarbamoyl)-4-fluoro-pyrrolidine-2-carbonyl]-amino}-3-methyl-pentanoic acid] has an IC50 of 6.75 µM.
With `NC(=O)n1cc(NC(=O)N2C[C@@H](N)C[C@H]2C(=O)NCc2cccc(Cl)c2F)c2ccccc21` [Example 26, (2S,4S)-4-Amino-pyrrolidine-1,2-dicarboxylic acid 1-[(1-carbamoyl-1H-indol-3-yl)-amide]2-(3-chloro-2-fluoro-benzylamide)] the IC50 was 0.025 µM.
In the case of `NC(=O)n1cc(NC(=O)N2C[C@@H](N)C[C@H]2C(=O)Nc2ccccc2)c2ccccc21` [Example 27, (2S,4S)-4-Amino-pyrrolidine-1,2-dicarboxylic acid 1-[(1-carbamoyl-1H-indol-3-yl)-amide] 2-phenylamide], the IC50 is reported as 8.3 µM.
With `NC(=O)n1cc(NC(=O)N2C[C@@H](N)C[C@H]2C(=O)NCc2ccccc2)c2ccccc21` [Example 28, (2S,4S)-4-Amino-pyrrolidine-1,2-dicarboxylic acid 2-benzylamide 1-[(1-carbamoyl-1H-indol-3-yl)-amide]] the IC50 was 2.52 µM.
`NC(=O)n1cc(NC(=O)N2C[C@@H](N)C[C@H]2C(=O)NCc2cccc(Cl)c2)c2ccccc21` [Example 29, (2S,4S)-4-Amino-pyrrolidine-1,2-dicarboxylic acid 1-[(1-carbamoyl-1H-indol-3-yl)-amide] 2-(3-chloro-benzylamide)] was tested, and the IC50 was 0.588 µM.
`Cc1cccc(CNC(=O)[C@@H]2C[C@H](N)CN2C(=O)Nc2cn(C(N)=O)c3ccccc23)c1` [Example 30, (2S,4S)-4-Amino-pyrrolidine-1,2-dicarboxylic acid 1-[(1-carbamoyl-1H-indol-3-yl)-amide] 2-(3-methyl-benzylamide)] gave an IC50 of 2.7 µM.
Work on `NC(=O)n1cc(NC(=O)N2C[C@@H](N)C[C@H]2C(=O)NCc2cccc(C(F)(F)F)c2)c2ccccc21` [Example 31, (2S,4S)-4-Amino-pyrrolidine-1,2-dicarboxylic acid 1-[(1-carbamoyl-1H-indol-3-yl)-amide] 2-(3-trifluoromethyl-benzylamide)] yielded an IC50 of 12.2 µM.
For `NC(=O)n1cc(NC(=O)N2C[C@@H](N)C[C@H]2C(=O)NCc2cccc(F)c2)c2ccccc21` [Example 32, (2S,4S)-4-Amino-pyrrolidine-1,2-dicarboxylic acid 1-[(1-carbamoyl-1H-indol-3-yl)-amide] 2-(3-fluoro-benzylamide)], the IC50 was 3.35 µM.
Work on `N#Cc1cccc(CNC(=O)[C@@H]2C[C@H](N)CN2C(=O)Nc2cn(C(N)=O)c3ccccc23)c1` [Example 33, (2S,4S)-4-Amino-pyrrolidine-1,2-dicarboxylic acid 1-[(1-carbamoyl-1H-indol-3-yl)-amide] 2-(3-cyano-benzylamide)] yielded an IC50 of 24.1 µM.
For `NC(=O)n1cc(NC(=O)N2C[C@@H](N)C[C@H]2C(=O)NCc2cccc(Br)c2)c2ccccc21` [Example 34, (2S,4S)-4-Amino-pyrrolidine-1,2-dicarboxylic acid 2-(3-bromo-benzylamide) 1-[(1-carbamoyl-1H-indol-3-yl)-amide]], the IC50 was 0.09 µM.
In the case of `NC(=O)n1cc(NC(=O)N2C[C@@H](N)C[C@H]2C(=O)NCc2cccc(O)c2)c2ccccc21` [Example 35, (2S,4S)-4-Amino-pyrrolidine-1,2-dicarboxylic acid 1-[(1-carbamoyl-1H-indol-3-yl)-amide] 2-(3-hydroxy-benzylamide)], the IC50 is reported as 2.85 µM.
`COc1cccc(CNC(=O)[C@@H]2C[C@H](N)CN2C(=O)Nc2cn(C(N)=O)c3ccccc23)c1` [Example 36, (2S,4S)-4-Amino-pyrrolidine-1,2-dicarboxylic acid 1-[(1-carbamoyl-1H-indol-3-yl)-amide] 2-(3-methoxy-benzylamide)] gave an IC50 of 3.25 µM.
Work on `NC(=O)n1cc(NC(=O)N2C[C@@H](N)C[C@H]2C(=O)NCc2cccc(OC(F)(F)F)c2)c2ccccc21` [Example 37, (2S,4S)-4-Amino-pyrrolidine-1,2-dicarboxylic acid 1-[(1-carbamoyl-1H-indol-3-yl)-amide] 2-(3-trifluoromethoxy-benzylamide)] yielded an IC50 of 22 µM.
